Assay [1] addresses T1, AAD1 (v1) (Sphingobium herbicidovorans, UniProt Q8KSC8).
T1 construct: made in house; host or cells: E. coli BL-21 Star (DE3), plasmid pDAB3203
The experiment in a line: Colorimetric phenol detection assay of AAD1 (v1) activity (purified enzyme or E. coli extract). The assay is classed as biochemical. Conditions: for activity of AAD1 (v1) E. coli extract on substrate: 0.5 mM substrate, 4 μl extract, 15 min; for A510, AAD1 / A510, AAD1 (10x): Table 4, substrate 1 mM; for A510, AAD1: 1 μg purified AAD1 (v1) per 0.16 ml assay; for A510, AAD1 (10x): 10 μg purified AAD1 (v1) per 0.16 ml assay.

Assay [2] concerns Agrostis palustris var. Pencross. The experiment in a line: Bentgrass plate test bioassay for herbicide degradation. The assay is classed as in vivo. Conditions: for GR50 ratio: enzyme-expressing lysate vs blank vector, ≥ 2 = threshold. The method, then: Because of the selective nature of the herbicides being tested (i.e., monocot plants controlled by AOPP herbicides and dicot plants controlled by auxinic herbicides), wildtype Agrostis palustris var. Pencross and Arabidopsis thaliana var. Columbia were used as monocot and dicot test species, respectively. Each species is amenable to germination and growth in small Petri dishes.
Twenty to thirty sterilized seeds for each test species used were added onto a sterile, solidified agar Plate Test Medium (PTM) [2.5 mM KNO3, 2.5 mM KH2PO4, […], 10 mM NaEDTA (pH 8.0), 2 mM MgSO4, 2 mM Ca(NO3) 2, 70 μM H3BO3, 14 μM MnCl2, 0.5 μM CuSO4, 1 μM ZnSO4, 0.2 μM NaMoO4.2H2O, 10 μM NaCl, 10 nM CoCl2.H2O, 0.8% (w/v) sucrose, 0.4% agarose (w/v)] for bioassay in 60×15-mm Petri dishes (Falcon 1007). PTM was additionally modified by adding up to six rates of test herbicide standards or herbicide-enzyme test solution dilutions such that the four-fold concentration increments covered a rate range of three orders of magnitude with the GR50 rate (50% growth reduction) approximately in the center of the range.
For herbicide-enzyme test solutions, the maximal concentration was determined based on the nominal concentration before any subsequent enzymatic degradation would occur. Seeds were evenly spread by adding 3 ml of melted PTM of the same composition, swirling, and allowing to solidify. Plates were sealed and maintained under sterile conditions in a low light growth chamber (24 h day^−1, 100 μE/m^2s^1, 23° C.) for 7 days. Root length or root+shoot length were measured for five randomly chosen Arabidopsis and bentgrass plants, respectively, average mean length (percent of untreated control) vs. nominal herbicide concentration and GR50 determined.

Assay [3] deals with transformed-control line containing PAT and Cry1F. The experiment in a line: Foliar-applied auxinic herbicides on control (PAT/Cry1F, wildtype) Arabidopsis, % injury 14 DAT. Type of assay: in vivo, Arabidopsis thaliana. Conditions: PatCry1f - Control. On the procedure: The ability of AAD1 (v3) to provide resistance to other aryloxyphenoxyalkanoate auxin herbicides in transgenic Arabidopsis was determined by foliar application of various substrates described in Example 6.8. T4 generation Arabidopsis seed, homozygous for AAD1 (v3) (line AAD1.01.315.076) was stratified, and sown into selection trays much like that of Arabidopsis (Example 6.4). A transformed-control line containing PAT and the insect resistance gene Cry1F was planted in a similar manner. Seedlings were transferred to individual 3-inch pots in the greenhouse. All plants were sprayed with the use of a track sprayer set at 187 L/ha. […] All applications were formulated in 200 mM Hepes buffer (pH 7.5). Each treatment was replicated 3-4 times. Plants were evaluated at 3 and 14 days after treatment and are averaged over two experiments.

The test system of assay [4] is wildtype KY 160 tobacco. The experiment in a line: Wildtype tobacco response to phenoxy auxin herbicides. Conditions: KY160-Wildtype. The assay is classed as in vivo, Nicotiana tabacum. The method, then: Each treatment was replicated 1-3 times. Injury ratings were recorded 3 and 14 DAT. […] In several events, some initial auxinic herbicide-related epinasty occurred at doses of 800 g ae/ha or less. […] All events suffered some level temporary auxinic damage 3 DAT when treated with 3200 g ae/ha. Some leaf burning also occurred at this high rate due to the acidity of the spray solution. Future trials at high 2,4-D rates were buffered. […] Some events were inconsistent in response among replicates and were deemed “variable” (Table 27).
(§1) Two AAD1 (v3) tobacco lines (event 721(2)-013.010 and 721(3)-008.005) were chosen from the T0 generation. The T1 seed was stratified, and sown into selection trays much like that of Arabidopsis (Example 6.4), followed by selective removal of untransformed nulls in this segregating population with 280 g ai/ha glufosinate (PAT selection). Survivors were transferred to individual 3-inch pots in the greenhouse. […] Improved consistency of response is anticipated in T1 plants not having come directly from tissue culture. These plants were compared against wildtype KY 160 tobacco. All plants were sprayed with the use of a track sprayer set at 187 L/ha. […] All applications were formulated in 200 mM Hepes buffer (pH 7.5). Each treatment was replicated 4 times. Plants were evaluated at 3 and 14 days after treatment. Plants were assigned injury rating with respect to stunting, chlorosis, and necrosis. The T1 generation is segregating, so some variable response is expected due to difference in zygosity. (Table 28).

Assay [5] has as its system T4 Arabidopsis homozygous for AAD1 (v3) (line AAD1.01.315.076). The experiment in a line: Foliar-applied auxinic herbicides on homozygous T4 AAD1 (v3) Arabidopsis, % injury 14 DAT. The assay is classed as in vivo, Arabidopsis thaliana. The conditions noted are these: AAD1.01.315.076.T4 homozygous AAD1 plants. In outline: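 Homozygous T4 AAD1 (v3) Arabidopsis (line AAD1.01.315.076) and a PAT/Cry1F transformed control were grown in pots and track-sprayed foliarly at 187 L/ha with herbicides formulated in 200 mM Hepes pH 7.5. Injury was rated 14 days after treatment, with 3-4 replicates averaged over two experiments.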

The subject of assay [6] is AAD1 (v3) T1 tobacco (events 721(2)-013.010 and 721(3)-008.005). Nature of the assay: Segregating AAD1 T1 tobacco response to phenoxy auxin herbicides. Type of assay: in vivo, Nicotiana tabacum.
From the text: as §1

For assay [7], the system named is Hi-II corn grown from seed. The experiment in a line: Lethal dose of AOPP herbicides on non-transformed Hi-II corn.
The test system of assay [8] is AAD1 (v3)-transformed T0 corn events. Nature of the assay: Tolerance of T0 AAD1 (v3) corn plants (pDAB3404) to postemergence AOPP herbicides. Type of assay: in vivo.
Assay [9] deals with Hi II X 5XH751. The experiment in a line: Greenhouse injury of non-transformed Hi II X 5XH751 corn (2,4-D DMA, glyphosate, glufosinate and combinations). Type of assay: in vivo. On the procedure: (§2) F1 seeds were planted individually into 3-inch pots prepared with Metro-Mix® 360 growing medium (Sun Gro Horticulture). […] For the remainder of the study the plants were subirrigated with deionized water.
(§3) The plants were sprayed with rates of 2,4-D DMA, glyphosate, glufosinate, and various combinations of the three. All applications were formulated in 200 mM Hepes buffer (pH 7.5). In spray applications where glufosinate was present the treatment was formulated with the addition of 2% w/v ammonium sulfate.
(§4) At 3 and 14 days after treatment (DAT) plants were evaluated. Plants were assigned injury rating with respect to stunting, chlorosis, and necrosis. Plants assigned an injury rating of 90% or above are considered dead.

Assay [10] relates to F1 corn containing AAD1 (v3), PAT, and glyphosate resistance genes. The experiment in a line: Greenhouse injury of F1 corn stacked with AAD1 (v3), PAT and glyphosate resistance (2,4-D DMA, glyphosate, glufosinate and combinations). Type of assay: in vivo. The conditions noted are these: RR/PAT/AAD1.
From the text: Homozygous T2 AAD1 (v3)/PAT corn plants were crossed with glyphosate resistant corn plants producing F1 seed containing AAD1 (v3), PAT, and glyphosate resistance genes as described in the previous example.
as §2, §3, §4

The mark [11] stands for this setting: Agrostis stolonifera, AAD1 (v1)-expressing lysate, nominal concentration, read-out: GR50, Chemical + AAD1 v1.
Where [12] appears, read: Escherichia coli, in Agrostis stolonifera, cell lysate of E. coli pET vector without gene insert, read-out: GR50, Chemical + Blank Vector.
[13] abbreviates: purified AAD1 (v1), 1 mM substrate.

Read-outs that look alike come from different tables or passages of the source.

Here are results for 5 compounds from US10450549B2, “Aryloxyphenoxypropionate tolerance in turfrgass species and use of AAD1 as a selectable marker” (Dow AgroSciences, LLC, priority 2004, dated 2019).

T1 sequence (Q8KSC8 whole entry): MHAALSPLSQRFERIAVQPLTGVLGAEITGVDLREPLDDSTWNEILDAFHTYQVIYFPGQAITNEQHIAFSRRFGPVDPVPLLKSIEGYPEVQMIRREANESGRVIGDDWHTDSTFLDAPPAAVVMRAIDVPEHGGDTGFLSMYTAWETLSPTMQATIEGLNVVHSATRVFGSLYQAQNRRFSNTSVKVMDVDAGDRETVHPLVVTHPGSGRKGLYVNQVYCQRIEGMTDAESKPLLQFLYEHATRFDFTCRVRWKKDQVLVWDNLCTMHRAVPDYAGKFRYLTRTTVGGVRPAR

For the compound `CC(Oc1ccc(Oc2ncc(C(F)(F)F)cc2Cl)cc1)C(=O)O` (stereo not shown) [Haloxyfop-RS], the “activity of AAD1 (v1) E. coli extract on substrate” value in assay [1] is reported as “cleaved”. In addition, the IC50 in assay [2] (Agrostis stolonifera, 168 h, root+shoot length, 7 days, read-out: GR50, Chemical alone) amounted to 28 nM; in assay [2] (setting [11]), 520 nM; in [2] (setting [12]), 21 nM. The GR50 ratio in [2] is recorded as 25.

With `C[C@@H](Oc1ccc(Cl)cc1Cl)C(=O)O` [R-dichlorprop], the kcat in assay [1] (purified AAD1 (v1)) stood at 0.435 s⁻¹. Moreover, the Km in [1] (purified AAD1 (v1), 25 mM MOPS pH 6.8, 25° C., read-out: Km ± SE) came out at 75 ± 10 µM. The “Vmax ± SE” value in assay [1] (purified AAD1 (v1), Michaelis-Menten fit) is given as 0.79 ± 0.03 μmol min^−1 mg^−1 AAD1. Also, the “Ave % Injury 14DAT” value in [3] (50 g ae/ha foliar) is listed as 31%; in [3] (200 g ae/ha foliar) it was 73%; in assay [3] (800 g ae/ha foliar), 89%; in assay [3] (3200 g ae/ha foliar), 95%; in assay [5] (50 g ae/ha foliar), 3%; in assay [5] (200 g ae/ha foliar) it was 3%. For the same compound, the “Ave % Injury 14DAT” value in [5] (800 g ae/ha foliar) and in [5] (3200 g ae/ha foliar) was 3% each time. The “Average % Injury of Replicates 14 DAT” value in assay [4] (560 g ae/ha) worked out at 70%; in assay [4] (1120 g ae/ha) it was 75%; in [4] (2240 g ae/ha) it was 88%; in assay [4] (4480 g ae/ha) it was 95%; in assay [6] (560 g ae/ha, 721(2)013.010 (medium tolerance in T0 generation)), 5%; in assay [6] (560 g ae/ha, 721(3)008.005 (high tolerance in T0 generation)), 0%. The “Average % Injury of Replicates 14 DAT” value in assay [6] (1120 g ae/ha, 721(2)013.010 (medium tolerance in T0 generation)) came out at 5%; in assay [6] (1120 g ae/ha, 721(3)008.005 (high tolerance in T0 generation)), 0%; in [6] (2240 g ae/ha, 721(2)013.010 (medium tolerance in T0 generation)), 5%; in assay [6] (2240 g ae/ha, 721(3)008.005 (high tolerance in T0 generation)) it was 0%; in assay [6] (4480 g ae/ha, 721(2)013.010 (medium tolerance in T0 generation)) it was 10%; in assay [6] (4480 g ae/ha, 721(3)008.005 (high tolerance in T0 generation)), 5%. Further, the “injury of T1 AAD1 (v3) tobacco” value in assay [6] (rates below 1× field rates (560 g ae/ha), either event) was “No injury was observed”.

`C[C@@H](Oc1ccc(Oc2ccc(C#N)cc2F)cc1)C(=O)O` [cyhalofop]: in assay [1], the “A510, AAD1” value is 0.114. Further, the “A510, AAD1 (10x)” value in assay [1] was 1.26. Also, the “activity relative to the dichlorprop rate” value in assay [1] (setting [13]) was determined as 21%. In [1] (setting [13]), the “activity relative to the quizalofop rate” value stood at 27%. For the same compound, in assay [7] (Clincher + 1% COC (v/v)), the lethal dose was determined as 62.5 g ae/ha). In addition, the “rate that effectively kills (>95% injury) three to four leaf Hi-II corn” value in [7] (postemergence, commercial formulations) came to 62.5 g ae/ha. Further, the “% Injury 14 DAT” value in [8] (62.5 g ae/ha, construct 3404 event 001 clone 018) turned out to be 0%; in assay [8] (62.5 g ae/ha, construct 3404 event 022 clone 024), 0%; in assay [8] (62.5 g ae/ha, construct 3404 event 038 clone 018), 0%; in assay [8] (125 g ae/ha, construct 3404 event 022 clone 018) it was 0%.

Regarding `CC(Oc1ccc(Oc2ccc(Cl)cc2Cl)cc1)C(=O)O` (racemic) [(R,S)- diclofop], in [1], the “activity of AAD1 (v1) E. coli extract on substrate” value is reported as “cleaved”; the “A510, AAD1” value is 0.155; the “A510, AAD1 (10x)” value is listed as 1.663. The “herbicidal activity after AAD1 (v1) treatment, bentgrass plate bioassay” value in assay [2] (AAD1 (v1) extract) was “loss of herbicidal activity”. Further, in assay [2] (setting [11]), the IC50 stood at 130 nM. Moreover, the IC50 in assay [2] (setting [12]) was determined as 20 nM. Further, in assay [2], the GR50 ratio is 7.

As to `CP(=O)(O)CCC(N)C(=O)O` (stereo not shown) [glufosinate], the “% Injury at 14 DAT Ave” value in assay [9] (470 g ae/ha (1X)) is 80%; in assay [9] (940 g ae/ha (2X)), 90%; in [9] (1880 g ae/ha (4X)), 96%; in assay [10] (470 g ae/ha (1X)) it was 0%; in assay [10] (940 g ae/ha (2X)) it was 3%; in assay [10] (1880 g ae/ha (4X)) it was 15%.

In general, kcat refers to the number of substrate molecules converted per active site and unit of time at saturation. For orientation: Km means the substrate concentration at which the rate is half of its maximum.
